ChEMBL document CHEMBL1201862, “PubChem BioAssay data set” (2004)
Each block holds one molecule with its values, some of them ahead of it. Active and inactive are the calls of the source.

Legend:
[1] = target: Neurotensin receptor type 1 (Homo sapiens, UniProt P30989); assay type: functional;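 note: Image-based confirmatory dose-response assay measuring agonist activity at NTR1; NTR1-expressing U2OS osteosarcoma cells imaged for beta-arrestin GFP spot formation; agonist potency where compounds increase beta-arrestin recruitment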
[2] = target: T1, Apoptotic protease-activating factor 1 (Homo sapiens, UniProt O14727); assay type: functional
T1 sequence (O14727 whole entry): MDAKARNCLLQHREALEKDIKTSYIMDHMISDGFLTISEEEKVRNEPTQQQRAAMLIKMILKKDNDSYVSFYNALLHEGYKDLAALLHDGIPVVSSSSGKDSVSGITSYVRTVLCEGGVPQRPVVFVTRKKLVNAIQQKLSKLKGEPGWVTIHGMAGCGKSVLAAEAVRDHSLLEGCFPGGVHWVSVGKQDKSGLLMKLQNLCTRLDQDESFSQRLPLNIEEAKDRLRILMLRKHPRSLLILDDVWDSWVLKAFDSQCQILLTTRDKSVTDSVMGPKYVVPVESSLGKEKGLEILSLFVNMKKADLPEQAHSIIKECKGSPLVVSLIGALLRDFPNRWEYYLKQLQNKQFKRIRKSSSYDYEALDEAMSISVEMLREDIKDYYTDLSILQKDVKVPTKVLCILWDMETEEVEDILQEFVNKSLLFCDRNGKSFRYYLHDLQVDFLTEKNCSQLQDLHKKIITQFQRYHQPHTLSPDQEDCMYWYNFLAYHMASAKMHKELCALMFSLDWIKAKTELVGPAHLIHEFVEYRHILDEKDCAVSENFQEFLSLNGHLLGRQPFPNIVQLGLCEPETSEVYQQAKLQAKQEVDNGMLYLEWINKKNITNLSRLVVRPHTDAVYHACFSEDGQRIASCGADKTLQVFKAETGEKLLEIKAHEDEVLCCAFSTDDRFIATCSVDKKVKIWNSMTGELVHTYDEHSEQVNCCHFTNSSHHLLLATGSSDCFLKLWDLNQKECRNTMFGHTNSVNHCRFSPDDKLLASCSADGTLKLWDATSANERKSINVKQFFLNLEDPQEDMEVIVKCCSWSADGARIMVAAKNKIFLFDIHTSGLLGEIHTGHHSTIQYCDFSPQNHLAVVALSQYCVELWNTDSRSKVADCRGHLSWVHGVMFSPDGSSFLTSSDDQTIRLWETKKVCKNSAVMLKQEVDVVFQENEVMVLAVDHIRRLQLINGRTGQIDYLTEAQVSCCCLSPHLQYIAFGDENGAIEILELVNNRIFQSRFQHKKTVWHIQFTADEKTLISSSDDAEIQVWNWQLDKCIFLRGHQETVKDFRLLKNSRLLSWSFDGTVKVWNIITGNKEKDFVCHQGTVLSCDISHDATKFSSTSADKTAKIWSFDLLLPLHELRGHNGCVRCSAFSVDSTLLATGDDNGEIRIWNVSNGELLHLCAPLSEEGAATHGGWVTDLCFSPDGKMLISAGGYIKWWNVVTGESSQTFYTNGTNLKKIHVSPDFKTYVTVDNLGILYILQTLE

[3] = target: T2, Ubiquitin-conjugating enzyme E2 N (Homo sapiens, UniProt P61088); assay type: functional;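 note: Dose-response confirmation in a TR-FRET assay detecting UBC13-driven polyubiquitin chain formation, inhibition measured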
T2 sequence (P61088 whole entry): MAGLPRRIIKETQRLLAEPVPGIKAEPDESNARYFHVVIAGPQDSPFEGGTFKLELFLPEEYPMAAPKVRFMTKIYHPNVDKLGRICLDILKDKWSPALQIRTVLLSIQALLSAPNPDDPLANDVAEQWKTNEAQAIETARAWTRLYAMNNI

[4] = HEp-2 cell cytotoxicity, dose response, cytotoxicity control for RSV inhibitor project, HTS (AID 2410); assay type: functional; conditions: human respiratory syncytial virus
[5] = cells
[6] = target: T3, Insulin-degrading enzyme (Homo sapiens, UniProt P14735); assay: Dose Response: Fluorescence polarization-based cell-based high throughput dose response assay for inhibitors of insulin-degrading enzyme (IDE). [Related pubchem assays: 434962 (Primary screen (IDE inhibitors in singlicate)), 449730 (Counterscreen (Cytotoxicity in triplicate)), 435028 (Confirmation (IDE inhibitors in triplicate)), 434984 (Summary …; assay type: functional
T3 sequence (P14735 whole entry): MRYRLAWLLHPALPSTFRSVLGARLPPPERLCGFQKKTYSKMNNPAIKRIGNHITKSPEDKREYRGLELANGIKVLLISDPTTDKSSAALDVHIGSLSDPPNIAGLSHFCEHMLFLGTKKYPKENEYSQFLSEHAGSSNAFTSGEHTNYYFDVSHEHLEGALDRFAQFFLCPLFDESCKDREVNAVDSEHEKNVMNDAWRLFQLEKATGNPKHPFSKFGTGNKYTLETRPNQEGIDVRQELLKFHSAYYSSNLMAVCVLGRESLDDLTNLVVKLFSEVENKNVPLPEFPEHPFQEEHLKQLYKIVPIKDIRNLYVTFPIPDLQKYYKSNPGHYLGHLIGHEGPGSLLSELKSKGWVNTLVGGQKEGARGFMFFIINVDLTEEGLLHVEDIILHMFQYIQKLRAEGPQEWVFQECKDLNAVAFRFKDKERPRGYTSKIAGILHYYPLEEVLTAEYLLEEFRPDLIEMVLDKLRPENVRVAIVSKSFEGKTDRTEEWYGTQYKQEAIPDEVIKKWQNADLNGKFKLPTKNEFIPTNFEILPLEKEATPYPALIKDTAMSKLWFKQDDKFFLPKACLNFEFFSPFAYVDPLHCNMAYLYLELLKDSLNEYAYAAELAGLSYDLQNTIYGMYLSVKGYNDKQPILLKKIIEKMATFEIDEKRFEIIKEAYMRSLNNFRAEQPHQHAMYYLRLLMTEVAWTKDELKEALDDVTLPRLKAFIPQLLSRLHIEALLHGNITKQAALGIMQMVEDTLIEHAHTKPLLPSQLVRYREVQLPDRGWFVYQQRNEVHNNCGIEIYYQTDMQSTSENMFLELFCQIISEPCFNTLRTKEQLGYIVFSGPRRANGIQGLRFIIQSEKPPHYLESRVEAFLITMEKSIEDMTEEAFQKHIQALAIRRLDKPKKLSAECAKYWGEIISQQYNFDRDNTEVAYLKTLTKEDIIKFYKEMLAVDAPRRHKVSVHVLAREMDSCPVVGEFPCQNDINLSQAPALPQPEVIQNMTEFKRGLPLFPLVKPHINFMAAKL

[7] = target: T4, Aminopeptidase N (Plasmodium falciparum FcB1/Columbia, UniProt O96935); assay: P. falciparum M1AAP inhibitors, biochemical, fluorogenic H-Leu-NHMec substrate, 1536-well (AID 1445); parameters: species or system Plasmodium falciparum 3D7, 3D7
T4 sequence (O96935 whole entry): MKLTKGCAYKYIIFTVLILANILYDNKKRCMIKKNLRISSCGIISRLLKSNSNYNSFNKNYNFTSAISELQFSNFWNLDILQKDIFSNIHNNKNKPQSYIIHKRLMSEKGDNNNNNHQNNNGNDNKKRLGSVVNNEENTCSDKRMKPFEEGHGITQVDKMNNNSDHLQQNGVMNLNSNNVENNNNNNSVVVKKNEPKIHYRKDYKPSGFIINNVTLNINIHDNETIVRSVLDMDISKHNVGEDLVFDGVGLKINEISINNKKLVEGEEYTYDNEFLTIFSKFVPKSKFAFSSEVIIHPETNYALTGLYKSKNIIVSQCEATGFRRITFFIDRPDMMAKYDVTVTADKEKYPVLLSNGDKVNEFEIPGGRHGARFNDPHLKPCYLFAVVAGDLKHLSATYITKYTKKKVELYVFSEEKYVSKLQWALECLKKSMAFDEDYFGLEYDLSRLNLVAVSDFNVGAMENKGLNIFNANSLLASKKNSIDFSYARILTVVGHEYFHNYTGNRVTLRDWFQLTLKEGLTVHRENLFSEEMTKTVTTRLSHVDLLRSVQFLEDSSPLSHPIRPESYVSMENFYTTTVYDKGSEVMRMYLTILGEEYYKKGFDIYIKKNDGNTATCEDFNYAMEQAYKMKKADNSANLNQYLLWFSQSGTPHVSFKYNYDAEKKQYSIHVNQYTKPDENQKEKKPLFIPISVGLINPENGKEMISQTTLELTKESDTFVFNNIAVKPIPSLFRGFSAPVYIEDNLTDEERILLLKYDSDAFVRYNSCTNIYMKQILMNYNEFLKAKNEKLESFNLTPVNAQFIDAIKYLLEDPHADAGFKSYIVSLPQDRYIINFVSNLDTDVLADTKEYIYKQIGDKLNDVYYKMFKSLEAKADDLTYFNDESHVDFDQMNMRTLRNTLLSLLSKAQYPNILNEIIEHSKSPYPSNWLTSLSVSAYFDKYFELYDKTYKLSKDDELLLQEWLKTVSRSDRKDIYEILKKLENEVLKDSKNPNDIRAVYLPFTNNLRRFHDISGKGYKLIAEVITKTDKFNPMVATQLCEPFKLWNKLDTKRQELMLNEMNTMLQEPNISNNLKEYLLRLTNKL

[8] = Counterscreen for IDE inhibitors: Luminescence-based cell-based high throughput dose response assay to identify compounds that are cytotoxic to HEK cells. [Related pubchem assays: 434962 (Primary screen (IDE inhibitors in singlicate)), 449730 (Counterscreen (Cytotoxicity in triplicate)), 435028 (Confirmation (IDE inhibitors in triplicate)) …; assay type: functional; conditions: HEK293
[9] = target: Peroxisome proliferator-activated receptor gamma/Nuclear receptor corepressor 2 (Homo sapiens, UniProt P37231+Q9Y618); assay type: functional
[10] = target: T5, Coagulation factor XII (Homo sapiens, UniProt P00748); assay type: functional;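 note: activated factor XIIa alpha cleaving a fluorogenic AMC peptide substrate; inhibitor potency from loss of enzyme activity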
T5 sequence (P00748 whole entry): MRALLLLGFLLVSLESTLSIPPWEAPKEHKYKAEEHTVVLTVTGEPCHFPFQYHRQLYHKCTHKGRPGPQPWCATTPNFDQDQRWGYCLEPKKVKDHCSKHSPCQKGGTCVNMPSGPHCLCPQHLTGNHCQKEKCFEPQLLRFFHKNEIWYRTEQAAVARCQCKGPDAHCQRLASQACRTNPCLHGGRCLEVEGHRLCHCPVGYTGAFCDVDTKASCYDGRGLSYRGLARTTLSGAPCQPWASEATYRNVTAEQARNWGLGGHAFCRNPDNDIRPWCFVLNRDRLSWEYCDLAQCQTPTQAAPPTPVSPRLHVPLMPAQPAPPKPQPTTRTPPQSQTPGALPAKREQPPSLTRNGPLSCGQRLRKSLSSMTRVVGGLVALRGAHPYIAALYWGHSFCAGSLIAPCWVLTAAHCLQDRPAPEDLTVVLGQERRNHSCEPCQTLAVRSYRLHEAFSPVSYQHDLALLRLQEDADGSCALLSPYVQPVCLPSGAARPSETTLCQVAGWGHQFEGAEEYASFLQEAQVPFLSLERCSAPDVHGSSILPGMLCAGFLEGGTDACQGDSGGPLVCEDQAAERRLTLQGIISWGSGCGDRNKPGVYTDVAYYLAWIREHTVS

[11] = target: Photoreceptor-specific nuclear receptor (Homo sapiens, UniProt Q9Y5X4); assay type: functional;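 note: potency for compounds that break the NR2E3 corepressor complex and count as activators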
[12] = cytotoxicity in HEK-293T cells, dose response, cytotoxicity control for BCR NF-kB inhibitor project, luminescence, B-cell screen hits (AID 489021); assay type: functional, cell-based;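 note: HEK-293T cells carrying an NF-kB luciferase reporter; cells exposed to compound for about 14 hours before viability readout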

Sequence of Neurotensin receptor type 1 (P30989 whole entry): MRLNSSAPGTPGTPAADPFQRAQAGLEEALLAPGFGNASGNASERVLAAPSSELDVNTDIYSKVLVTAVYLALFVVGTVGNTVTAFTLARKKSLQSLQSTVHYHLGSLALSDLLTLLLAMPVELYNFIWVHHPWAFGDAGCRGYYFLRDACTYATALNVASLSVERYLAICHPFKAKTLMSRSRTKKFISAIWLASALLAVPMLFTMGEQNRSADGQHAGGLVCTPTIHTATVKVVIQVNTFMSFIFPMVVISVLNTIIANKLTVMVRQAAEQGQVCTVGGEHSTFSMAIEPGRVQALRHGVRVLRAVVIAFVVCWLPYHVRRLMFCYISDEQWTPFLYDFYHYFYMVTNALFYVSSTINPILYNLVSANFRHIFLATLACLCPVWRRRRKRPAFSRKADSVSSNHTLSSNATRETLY
Sequence of Peroxisome proliferator-activated receptor gamma/Nuclear receptor corepressor 2 (P37231 whole entry): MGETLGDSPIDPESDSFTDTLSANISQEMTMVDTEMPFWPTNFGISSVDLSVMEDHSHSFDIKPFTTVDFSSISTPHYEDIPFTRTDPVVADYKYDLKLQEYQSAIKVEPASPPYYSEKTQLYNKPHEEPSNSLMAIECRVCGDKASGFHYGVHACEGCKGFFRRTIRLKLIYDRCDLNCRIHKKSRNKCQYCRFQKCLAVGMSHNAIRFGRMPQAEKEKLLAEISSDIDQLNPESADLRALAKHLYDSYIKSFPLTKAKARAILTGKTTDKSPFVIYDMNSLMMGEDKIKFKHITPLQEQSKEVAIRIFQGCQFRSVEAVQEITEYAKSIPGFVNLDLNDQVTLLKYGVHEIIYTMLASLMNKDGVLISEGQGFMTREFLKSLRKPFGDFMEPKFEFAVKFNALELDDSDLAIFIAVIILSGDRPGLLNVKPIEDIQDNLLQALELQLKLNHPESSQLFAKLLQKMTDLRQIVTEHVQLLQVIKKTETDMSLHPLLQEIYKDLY
Sequence of Peroxisome proliferator-activated receptor gamma/Nuclear receptor corepressor 2 (Q9Y618 whole entry): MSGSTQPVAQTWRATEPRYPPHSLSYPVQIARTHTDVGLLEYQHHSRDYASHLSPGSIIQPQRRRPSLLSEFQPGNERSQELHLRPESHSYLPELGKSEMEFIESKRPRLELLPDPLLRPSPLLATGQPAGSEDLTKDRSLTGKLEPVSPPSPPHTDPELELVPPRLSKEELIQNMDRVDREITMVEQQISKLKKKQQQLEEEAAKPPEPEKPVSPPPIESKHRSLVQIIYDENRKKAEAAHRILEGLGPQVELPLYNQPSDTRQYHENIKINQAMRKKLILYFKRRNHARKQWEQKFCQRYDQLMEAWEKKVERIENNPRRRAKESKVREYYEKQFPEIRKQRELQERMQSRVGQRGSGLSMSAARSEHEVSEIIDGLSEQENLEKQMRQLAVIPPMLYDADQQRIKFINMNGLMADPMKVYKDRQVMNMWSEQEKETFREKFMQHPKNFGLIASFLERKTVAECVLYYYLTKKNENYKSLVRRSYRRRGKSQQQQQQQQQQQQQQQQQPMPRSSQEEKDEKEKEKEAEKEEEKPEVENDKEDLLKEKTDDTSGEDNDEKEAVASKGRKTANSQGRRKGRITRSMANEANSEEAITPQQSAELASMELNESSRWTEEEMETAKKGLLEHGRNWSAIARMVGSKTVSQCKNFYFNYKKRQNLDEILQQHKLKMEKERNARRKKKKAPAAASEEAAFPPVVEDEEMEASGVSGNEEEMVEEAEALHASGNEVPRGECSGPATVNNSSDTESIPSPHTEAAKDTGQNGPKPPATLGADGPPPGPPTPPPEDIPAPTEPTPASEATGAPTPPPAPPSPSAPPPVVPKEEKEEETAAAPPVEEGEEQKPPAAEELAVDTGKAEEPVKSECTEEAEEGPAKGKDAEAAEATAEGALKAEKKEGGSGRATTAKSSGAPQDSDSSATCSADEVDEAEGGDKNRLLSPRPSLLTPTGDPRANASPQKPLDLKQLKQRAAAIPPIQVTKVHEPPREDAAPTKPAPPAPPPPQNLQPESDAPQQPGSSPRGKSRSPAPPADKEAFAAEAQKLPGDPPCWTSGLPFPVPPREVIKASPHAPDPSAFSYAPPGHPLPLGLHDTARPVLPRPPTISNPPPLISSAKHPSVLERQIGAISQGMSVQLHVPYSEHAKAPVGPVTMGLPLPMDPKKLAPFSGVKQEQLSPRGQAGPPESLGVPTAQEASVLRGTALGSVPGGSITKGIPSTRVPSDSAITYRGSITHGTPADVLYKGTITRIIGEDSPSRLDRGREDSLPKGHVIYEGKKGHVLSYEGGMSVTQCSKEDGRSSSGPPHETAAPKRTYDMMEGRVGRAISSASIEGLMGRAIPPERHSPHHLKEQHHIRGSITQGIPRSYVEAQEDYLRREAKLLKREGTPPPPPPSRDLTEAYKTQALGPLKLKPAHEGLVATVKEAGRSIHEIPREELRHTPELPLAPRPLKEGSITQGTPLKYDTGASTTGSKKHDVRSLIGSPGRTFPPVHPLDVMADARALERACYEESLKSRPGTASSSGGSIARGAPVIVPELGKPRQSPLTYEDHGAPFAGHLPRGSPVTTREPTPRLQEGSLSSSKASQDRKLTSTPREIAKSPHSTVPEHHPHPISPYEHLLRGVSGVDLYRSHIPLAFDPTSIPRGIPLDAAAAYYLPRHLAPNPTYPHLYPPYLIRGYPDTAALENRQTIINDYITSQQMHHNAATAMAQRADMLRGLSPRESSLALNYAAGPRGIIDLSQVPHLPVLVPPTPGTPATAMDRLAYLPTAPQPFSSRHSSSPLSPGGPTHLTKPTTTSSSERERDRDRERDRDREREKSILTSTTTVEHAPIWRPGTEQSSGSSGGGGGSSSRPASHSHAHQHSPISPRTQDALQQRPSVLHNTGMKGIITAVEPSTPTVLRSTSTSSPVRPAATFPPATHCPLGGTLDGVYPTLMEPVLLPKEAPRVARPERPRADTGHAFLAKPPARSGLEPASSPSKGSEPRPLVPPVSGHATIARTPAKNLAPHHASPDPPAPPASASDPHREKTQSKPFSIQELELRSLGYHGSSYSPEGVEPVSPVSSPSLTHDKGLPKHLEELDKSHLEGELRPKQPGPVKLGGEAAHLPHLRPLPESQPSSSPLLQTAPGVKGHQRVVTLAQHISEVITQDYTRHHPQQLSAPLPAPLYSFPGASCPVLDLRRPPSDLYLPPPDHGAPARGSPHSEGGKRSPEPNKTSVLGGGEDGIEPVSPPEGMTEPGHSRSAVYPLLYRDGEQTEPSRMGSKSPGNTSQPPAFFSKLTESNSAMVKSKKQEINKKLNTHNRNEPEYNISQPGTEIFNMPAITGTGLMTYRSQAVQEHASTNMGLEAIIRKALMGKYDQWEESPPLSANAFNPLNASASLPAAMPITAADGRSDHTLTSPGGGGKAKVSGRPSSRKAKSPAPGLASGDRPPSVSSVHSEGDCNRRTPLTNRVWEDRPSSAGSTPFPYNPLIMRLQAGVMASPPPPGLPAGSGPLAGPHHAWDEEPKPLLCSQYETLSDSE
Sequence of Photoreceptor-specific nuclear receptor (Q9Y5X4 whole entry): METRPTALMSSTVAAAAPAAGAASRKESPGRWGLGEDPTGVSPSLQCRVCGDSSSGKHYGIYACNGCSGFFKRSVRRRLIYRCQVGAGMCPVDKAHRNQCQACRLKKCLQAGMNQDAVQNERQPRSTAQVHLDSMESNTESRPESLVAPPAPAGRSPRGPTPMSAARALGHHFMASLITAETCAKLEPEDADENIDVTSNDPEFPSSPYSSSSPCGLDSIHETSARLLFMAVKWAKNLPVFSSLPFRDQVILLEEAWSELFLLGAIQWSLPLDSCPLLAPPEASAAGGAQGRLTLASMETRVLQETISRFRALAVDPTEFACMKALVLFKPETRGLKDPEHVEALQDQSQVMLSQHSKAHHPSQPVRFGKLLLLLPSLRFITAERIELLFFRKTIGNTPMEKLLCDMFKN

EC50 [1]: 9.68 µM (active)
SMILES: CCOc1ccc(C(=O)Nc2nnc(NC(=S)Nc3ccccc3)s2)cc1

SMILES: Cc1ccc(NC(=O)CN(C)C(=O)c2ccc3[nH]c4c(c3c2)CC(C)CC4)cc1 (centres undefined)
IC50 [2]: > 100 µM (inactive)
IC50 [3]: > 20 µM (inactive)
CC50 [4]: 28.2 µM (active)
IC50 [5]: 22.2 µM (active)

SMILES: Cc1cccc(N2C(=O)/C(=C/Nc3ccccc3-c3nnc(S)nc3O)c3ccccc3C2=O)n1
IC50 [6]: 12.2 µM (not active)
IC50 [7]: 60.4 µM (active)
IC50 [8]: > 55.7 µM (not active)

IC50 [9]: 4.7 µM (active)
IC50 [10]: > 50 µM (inactive)
IC50 [11]: > 39.8 µM (not active)
SMILES: Cc1nn(CCc2nnn[nH]2)c2nc(-c3ccc(Br)cc3)cc(C(F)(F)F)c12

SMILES: CCOC(=O)N1CCN(c2[nH]cnc3c4cc(OC)ccc4nc2-3)CC1
IC50 [6]: 9.15 µM (active)
IC50 [8]: 18.4 µM (not active)
IC50 [12]: 56.9 µM (inactive)
